Reference: patent US20250057864A1, “COMPOSITION FOR IMPROVING EXERCISE PERFORMANCE COMPRISING GYPENOSIDE COMPOUND AS ACTIVE INGREDIENT” (BTC CORPORATION, priority 2022, published 2025)

Legend:
[1] = tested on: p-AMPK, p-Sirt1, p-p38, p-Nrf2 in C2C12 cells; assay: Western blot of proteins related with PGC-1α activation in C2C12 cells; type: cell-based, mice; settings: C2C12, 0.36 μg/mL (Cr 5 μg/mL); for Protein expression level p-AMPK / Protein expression level p-Nrf2 / Protein expression level p-Sirt1 / Protein expression level p-p38: 7 days; for p-AMPK/AMPK ratio / p-Nrf2/Nrf2 ratio / p-Sirt1/Sirt1 ratio / p-p38/p38 ratio: control G1 = 1.00
Description: C2C12 cells were dispensed into a 6-well plate at 2×10^5 cells/well and stabilized for 24 hours. In order to investigate the effect of each test substance on muscle cell differentiation, each test substance was added to the myocyte differentiation medium. The cells were cultured for 4 days (mRNA analysis) or 7 days (protein analysis) after exchanging the cell culture medium with the myocyte differentiation medium treated with each test substance, as shown in Table 2.
C2C12 cells were dispensed into a 6-well plate at 2×10^5 cells/well and stabilized for 24 hours. The cells were cultured for 7 days after exchanging the culture medium with a myocyte differentiation medium containing the test substance. After the induction of differentiation for 7 days, the cells were homogenized by adding a lysis buffer (20 mmol/L HEPES, pH 7.5, 150 mmol/L NaCl, 1% Triton X-100, 1 mmol/L EDTA, 1 mmol/L EGTA, 100 mmol/L NaF, 10 mmol/L sodium pyrophosphate, 1 mmol/L Na3VO4, 20 μg/mL aprotinin, 10 μg/mL antipain, 10 μg/mL leupeptin, 80 μg/mL benzamidine HCl, 0.2 mmol/L PMSF) and a total cell lysate was obtained through centrifugation. The protein quantity of the total cell lysate was measured using a BCA protein assay kit (Thermo Scientific). The total cell lysate (50 μg) was separated by 10% sodium dodecyl sulfate polyacrylamide gel electrophoresis (SDS-PAGE) and then transferred to a polyvinylidene difluoride membrane (Milipore). The membrane was blocked for 1 hour in 5% skim milk-TBST (20 mmol/L Tris·HCl, pH 7.5, 150 mmol/L NaCl, 0.1% Tween 20) and then incubated for 16 hours at 4° C. or for 1 hour at room temperature after adding antibodies. Thereafter, horseradish peroxidase (HRP)-linked anti-rabbit IgG or HRP-linked anti-mouse IgG was added and the mixture was stirred for 1 hour. The detected protein bands were visualized by enhanced chemiluminescence using a Luminata™ Forte Western HRP substrate (Millipore). The level of protein expression was quantified using the ImageQuant™ LAS 500 imaging system (GE Healthcare Bio-Sciences AB).
The result of western blot analysis conducted using the total cell lysate obtained by treating with the test substance to investigate the effect of the test substance on the changes in proteins associated with PGC-1α activation is shown in Table 6.
Based on the western blot analysis result, the activity of each protein was evaluated from the ratio of activation.

[2] = tested on: gastrocnemius muscle (GA); assay: Glycogen content in muscle (gastrocnemius muscle, GA); type: in vivo, ICR mice; settings: 6 weeks
Description: (§1) After an acclimatization period of 1 week, healthy animals were selected and divided into 6 groups according to the randomized block design. The animals were divided into (G1) a non-exercise control group, (G2) a non-exercise+7 mg/kg body weight (BW) Example 1 group, (G3) a non-exercise+7 mg/kg BW Example 2 group, (G4) a non-exercise+7 mg/kg BW Example 3 group, (G5) a non-exercise+7 mg/kg BW Example 4 group, (G6) an exercise control group, (G7) an exercise+7 mg/kg BW Example 1 group, (G8) an exercise+7 mg/kg BW Example 2 group, (G9) an exercise+7 mg/kg BW Example 3 group, (G10) an exercise+7 mg/kg BW Example 4 group, and (G11) an exercise+75 mg/kg BW Cr dose group. Each test group consisted of 10 animals.
A muscle tissue fluid was prepared to measure glycogen content and enzymatic activity in the muscle tissue. 1 mL of PBS was added to the extracted quadriceps femoris muscle (QF), gastrocnemius muscle (GA), soleus muscle (SOL) and extensor digitorum longus muscle (EDL), and the skeletal muscles were homogenized with a homogenizer. The homogenized solution was centrifuged at 5,000 rpm for 10 minutes and then used as a muscle tissue fluid. The amount of proteins in the muscle tissue was measured using a BCA protein assay kit (Thermo Scientific).
The glycogen content in the liver and skeletal muscle (GA) was measured using a glycogen assay kit according to the method presented by the manufacturer (Abcam).
Accordingly, the glycogen content in the muscle (GA) collected at the end of the test was measured.

[3] = tested on: PGC1α, AMPK, p38, Nrf2 in gastrocnemius muscle (GA); assay: Western blot of proteins associated with PGC-1α activation in gastrocnemius muscle (GA); type: in vivo, ICR mice
soleus muscle (SOL) = assay: mRNA expression in soleus muscle (SOL), real-time RT-PCR; type: in vivo, ICR mice
Description: as §1
Total RNA was isolated from the muscle tissue (SOL) collected at the end of the test using a TRizol reagent (Thermo Fisher Scientific), and quantified using a micro-volume spectrophotometer (BioSpec-nano, Shimadzu). RNAs with OD260/280 values above 1.8 were used for experiment. After obtaining cDNA from the total RNA (2 μg) using a HyperScript™ RT master mix kit (GeneAll Biotechnology), real-time PCR was performed using a Rotor-Gene 300 PCR kit (Corbett Research) and a Rotor-Gene™ SYBR Green kit (QIAGEN). Quantitative analysis of the gene expression was performed using the Rotor-Gene 6000 Series System Software program (Corbett Research).
Muscle can be classified into slow muscle and fast muscle depending on the physiological rate of contraction. […] Therefore, the effect of endurance exercise training and the administration of the test substances on the expression of antioxidant-related genes (SOD2, GPx1, UCP2, UCP3), LDH-related genes (ERRα, LDH B, MCT1), mitochondrial synthesis-related genes (Tfam, CPT-1β, mtDNA, NRF1) and energy metabolism-related genes (PGC-1α, GYS, PPARγ, PPARδ) in the soleus muscle, which is a slow muscle, was investigated.

[4] = treadmill exercise, 7 mg/kg BW (Cr 75 mg/kg BW)
[5] = GA muscle, treadmill exercise, 7 mg/kg BW (Cr 75 mg/kg BW), G1 = 1.00
[6] = SOL muscle, treadmill exercise, 7 mg/kg BW (Cr 75 mg/kg BW), G1 = 1.00
[7] = GA muscle, non-exercise, 7 mg/kg BW, G1 = 1.00
[8] = SOL muscle, non-exercise, 7 mg/kg BW, G1 = 1.00

CN(CC(=O)O)C(=N)N.O [Cr, Creatine monohydrate, reference compound]
Protein expression level p-AMPK [1]: 104.6 ± 14.4 % of control group | Protein expression level p-Nrf2 [1]: 116.2 ± 11.4 % of control group | Protein expression level p-Sirt1 [1]: 114.0 ± 11.1 % of control group | Protein expression level p-p38 [1]: 151.5 ± 41.0 % of control group | p-AMPK/AMPK ratio [1]: 1.09 ± 0.13 | p-Nrf2/Nrf2 ratio [1]: 1.20 ± 0.26 | p-Sirt1/Sirt1 ratio [1]: 1.11 ± 0.10 | p-p38/p38 ratio [1]: 1.15 ± 0.29 | Glycogen content in 1 mg of GA [2, 4]: 3.32 ± 0.21^+ μg/mg GA | Total glycogen content in GA [2, 4]: 1350.5 ± 73.7^+ μg/GA | p-AMPK/AMPK ratio [3, 5]: 1.43 ± 0.13 | p-Nrf2/Nrf2 ratio [3, 5]: 1.35 ± 0.17 | p-PGC1α/PGC1α ratio [3, 5]: 2.28 ± 0.84^++ | p-p38/p38 ratio [3, 5]: 1.94 ± 0.16^+ | mRNA expression CPT-1β (soleus muscle (SOL); [6]): 0.95 ± 0.28^++ | mRNA expression ERRα (soleus muscle (SOL); [6]): 0.58 ± 0.19^+ | mRNA expression GPx1 (soleus muscle (SOL); [6]): 1.92 ± 0.29^+ | mRNA expression GSY (soleus muscle (SOL); [6]): 0.92 ± 0.31 | mRNA expression LDH B (soleus muscle (SOL); [6]): 0.35 ± 0.11^+ | mRNA expression MCT1 (soleus muscle (SOL); [6]): 0.99 ± 0.31^++ | mRNA expression NRF1 (soleus muscle (SOL); [6]): 9.17 ± 2.18 | mRNA expression PGC1α (soleus muscle (SOL); [6]): 5.09 ± 1.22^+ | mRNA expression PPARγ (soleus muscle (SOL); [6]): 0.29 ± 0.05 | mRNA expression PPARδ (soleus muscle (SOL); [6]): 3.82 ± 0.90^++ | mRNA expression SOD2 (soleus muscle (SOL); [6]): 1.52 ± 0.08^+ | mRNA expression Tfam (soleus muscle (SOL); [6]): 1.34 ± 0.07^ | mRNA expression UCP2 (soleus muscle (SOL); [6]): 14.96 ± 1.96^+++ | mRNA expression UCP3 (soleus muscle (SOL); [6]): 0.87 ± 0.22 | mRNA expression mtDNA (soleus muscle (SOL); [6]): 1.69 ± 0.20^

CC(C)=CCC[C@](C)(O)C1CC[C@]2(C)C1[C@H](O)CC1[C@@]3(C)C[C@@H](O)C(OC4OC(CO)C(O)C(O)C4OC4OC(CO)C(O)C(O)C4O)C(C)(C)C3CC[C@]12C (stereo partly shown) [Example 1, Gypenoside L]
Protein expression level p-AMPK [1]: 117.7 ± 7.2 % of control group | Protein expression level p-Nrf2 [1]: 135.1 ± 1.6 % of control group | Protein expression level p-Sirt1 [1]: 143.4 ± 5.6 % of control group | Protein expression level p-p38 [1]: 133.1 ± 7.1 % of control group | p-AMPK/AMPK ratio [1]: 1.27 ± 0.25 | p-Nrf2/Nrf2 ratio [1]: 1.50 ± 0.11 | p-Sirt1/Sirt1 ratio [1]: 1.38 ± 0.06 | p-p38/p38 ratio [1]: 1.27 ± 0.07 | Glycogen content in 1 mg of GA ([2]; non-exercise, 7 mg/kg BW): 3.56 ± 0.15 μg/mg GA | Total glycogen content in GA ([2]; non-exercise, 7 mg/kg BW): 1442.1 ± 76.2 μg/GA | Glycogen content in 1 mg of GA [2, 4]: 3.38 ± 0.12^+ μg/mg GA | Total glycogen content in GA [2, 4]: 1404.4 ± 83.3^+ μg/GA | p-AMPK/AMPK ratio ([3]; 7 mg/kg): 1.41 ± 0.14 | p-Nrf2/Nrf2 ratio ([3]; 7 mg/kg): 1.30 ± 0.16 | p-PGC1α/PGC1α ratio ([3]; 7 mg/kg): 1.98 ± 0.34^+ | p-p38/p38 ratio ([3]; 7 mg/kg): 1.86 ± 0.13^+ | p-AMPK/AMPK ratio [3, 7]: 1.22 ± 0.09 | p-Nrf2/Nrf2 ratio [3, 7]: 1.02 ± 0.06 | p-PGC1α/PGC1α ratio [3, 7]: 1.14 ± 0.07 | p-p38/p38 ratio [3, 7]: 1.71 ± 0.16 | mRNA expression CPT-1β (soleus muscle (SOL); 7 mg/kg): 0.86 ± 0.04^++ | mRNA expression ERRα (soleus muscle (SOL); 7 mg/kg): 1.41 ± 0.22 | mRNA expression GPx1 (soleus muscle (SOL); 7 mg/kg): 3.28 ± 0.36^++ | mRNA expression GSY (soleus muscle (SOL); 7 mg/kg): 0.27 ± 0.06 | mRNA expression LDH B (soleus muscle (SOL); 7 mg/kg): 1.26 ± 0.46 | mRNA expression MCT1 (soleus muscle (SOL); 7 mg/kg): 0.56 ± 0.25^+ | mRNA expression NRF1 (soleus muscle (SOL); 7 mg/kg): 29.20 ± 3.10^++ | mRNA expression PGC1α (soleus muscle (SOL); 7 mg/kg): 2.73 ± 0.51 | mRNA expression PPARγ (soleus muscle (SOL); 7 mg/kg): 5.82 ± 1.27^+ | mRNA expression PPARδ (soleus muscle (SOL); 7 mg/kg): 2.42 ± 0.45^+ | mRNA expression SOD2 (soleus muscle (SOL); 7 mg/kg): 1.47 ± 0.13^+ | mRNA expression Tfam (soleus muscle (SOL); 7 mg/kg): 1.98 ± 0.42^+ | mRNA expression UCP2 (soleus muscle (SOL); 7 mg/kg): 6.91 ± 1.47^++ | mRNA expression UCP3 (soleus muscle (SOL); 7 mg/kg): 0.64 ± 0.10 | mRNA expression CPT-1β (soleus muscle (SOL); [8]): 0.34 ± 0.02 | mRNA expression ERRα (soleus muscle (SOL); [8]): 1.67 ± 0.22 | mRNA expression GPx1 (soleus muscle (SOL); [8]): 0.89 ± 0.10 | mRNA expression GSY (soleus muscle (SOL); [8]): 2.60 ± 0.51 | mRNA expression LDH B (soleus muscle (SOL); [8]): 1.76 ± 0.49 | mRNA expression MCT1 (soleus muscle (SOL); [8]): 0.41 ± 0.03 | mRNA expression NRF1 (soleus muscle (SOL); [8]): 15.52 ± 2.59 | mRNA expression PGC1α (soleus muscle (SOL); [8]): 0.88 ± 0.08 | mRNA expression PPARγ (soleus muscle (SOL); [8]): 0.25 ± 0.00 | mRNA expression PPARδ (soleus muscle (SOL); [8]): 2.87 ± 0.95 | mRNA expression SOD2 (soleus muscle (SOL); [8]): 1.16 ± 0.03 | mRNA expression Tfam (soleus muscle (SOL); [8]): 4.74 ± 0.32 | mRNA expression UCP2 (soleus muscle (SOL); [8]): 1.23 ± 0.05 | mRNA expression UCP3 (soleus muscle (SOL); [8]): 0.51 ± 0.09 | mRNA expression mtDNA (soleus muscle (SOL); [8]): 1.29 ± 0.12 | mRNA expression mtDNA (soleus muscle (SOL); [6]): 4.66 ± 0.64^++
